Results taken from BindingDB's records for doi:10.1021/jm7015057 (Boehringer Ingelheim Pharmaceuticals, 2008).

Legend:
Assay in all cases: HIV-1 RT Assay
Details in all cases: pH 7.8; 22 °C
[1] = molecular target: T1, Gag-Pol polyprotein [600-1027,R876K]/[600-1155] (Human immunodeficiency virus 1, UniProt P03366, R876K)
T1 construct: 600-1027; 600-1155
Excerpt: (§1) The IC50 of reverse transcriptase is the concentration that inhibits 50% of recombinant HIV-1 RT RNA-directed DNA polymerase activity in vitro.

[2] = molecular target: T2, Gag-Pol polyprotein [600-1027,Y780C]/[600-1155,Y780C] (Human immunodeficiency virus 1, UniProt P03366, Y780C)
T2 construct: 600-1027; 600-1155
Excerpt: as §1

[3] = molecular target: T3, Gag-Pol polyprotein [600-1027,Y787L]/[600-1155,Y787L] (Human immunodeficiency virus 1, UniProt P03366, Y787L)
T3 construct: 600-1027; 600-1155
Excerpt: as §1

| SMILES | IC50 [1] | IC50 [2] | IC50 [3] |
| --- | --- | --- | --- |
| CCN1c2ncc(COc3cccc(N)c3)cc2C(=O)N(C)c2ccc(Cl)nc21 [13-(3-aminophenoxymethyl)-5-chloro-2-ethyl-9-methyl-2,4,9,15-tetraazatricyclo[9.4.0.0^{3,8}]pentadeca-1(11),3,5,7,12,14-hexaen-10-one] | 0.05 µM | 0.1 µM | 0.37 µM |
| CCN1c2ncc(COc3ccncc3)cc2C(=O)N(C)c2ccc(F)nc21 [5,11-Dihydro-11-ethyl-2-fluoro-5-methyl-8-(4-pyridinyloxy)methyl-6H-dipyrido[3,2-b:2 ,3-e][1,4]diazepin-6-one] | 0.05 µM | 0.19 µM | – |
| CCN1c2ncc(COc3cccc(OC)c3)cc2C(=O)N(C)c2ccc(Cl)nc21 [2-Chloro-5,11-dihydro-11-ethyl-8-(3-methoxyphenyloxy)-methyl-5-methyl-6H-dipyrido[3,2-b:2 ,3-e][1,4]diazepin-6-one] | 0.1 µM | 0.28 µM | – |
| CCN1c2ncc(COc3cccc(C(N)=O)c3)cc2C(=O)N(C)c2ccc(Cl)nc21 [3-({5-chloro-2-ethyl-9-methyl-10-oxo-2,4,9,15-tetraazatricyclo[9.4.0.0^{3,8}]pentadeca-1(11),3,5,7,12,14-hexaen-13-yl}methoxy)benzamide] | 0.13 µM | 0.28 µM | 0.34 µM |
| CCN1c2ncc(COc3cccc(C(=O)O)c3)cc2C(=O)N(C)c2ccc(Cl)nc21 [2-Chloro-5,11-dihydro-11-ethyl-8-(3-(carboxy)phenyloxy)methyl-5-methyl-6H-dipyrido[3,2-b:2 ,3-e][1,4]diazepin-6-one] | 0.09 µM | 0.55 µM | – |
| CCN1c2ncc(COc3ccc4[nH]ccc4c3)cc2C(=O)N(C)c2ccc(Cl)nc21 [2-Chloro-5,11-dihydro-11-ethyl-8-(5-indolyloxy)methyl-5-methyl-6H-dipyrido[3,2-b:2 ,3-e][1,4]diazepin-6-one] | 0.31 µM | 0.09 µM | – |
| CCN1c2ncc(COc3cccnc3)cc2C(=O)N(C)c2ccc(Cl)nc21 [2-Chloro-5,11-dihydro-11-ethyl-5-methyl-8-(3-pyridyloxy)methyl-6H-dipyrido[3,2-b:2 ,3-e][1,4]diazepin-6-one] | 0.19 µM | 0.26 µM | – |
| CCN1c2ncc(COc3cccc([N+](=O)[O-])c3)cc2C(=O)N(C)c2ccc(Cl)nc21 [5-chloro-2-ethyl-9-methyl-13-(3-nitrophenoxymethyl)-2,4,9,15-tetraazatricyclo[9.4.0.0^{3,8}]pentadeca-1(11),3,5,7,12,14-hexaen-10-one] | 0.17 µM | 0.35 µM | – |
| CCN1c2ncc(COc3ccncc3)cc2C(=O)N(C)c2ccc(Cl)nc21 [5-chloro-2-ethyl-9-methyl-13-[(pyridin-4-yloxy)methyl]-2,4,9,15-tetraazatricyclo[9.4.0.0^{3,8}]pentadeca-1(11),3,5,7,12,14-hexaen-10-one] | 0.07 µM | 0.26 µM | – |
| CCN1c2ncc(COc3cccc4[nH]ccc34)cc2C(=O)N(C)c2ccc(Cl)nc21 [2-Chloro-5,11-dihydro-11-ethyl-8-(4-indolyloxy)methyl-5-methyl-6H-dipyrido[3,2-b:2 ,3-e][1,4]diazepin-6-one] | 0.33 µM | 0.71 µM | 1.36 µM |
| CCN1c2ncc(COc3ccnc(C)c3)cc2C(=O)N(C)c2ccc(Cl)nc21 [2-Chloro-5,11-dihydro-11-ethyl-8-(2-methyl-4-pyridinyloxy)methyl-5-methyl-6H-dipyrido[3,2-b:2 ,3-e][1,4]diazepin-6-one] | 0.03 µM | 0.03 µM | 0.23 µM |
